According to US20260297106A1, “SPIROCYCLIC SUBSTITUTED OXOISOINDOLINYL PIPERIDINE-2,6-DIONE COMPOUND” (Bristol-Myers Squibb Company, priority 2023, published 2026):

Assays:
[1] = molecular target: T1, IKZF1 Ikaros (Homo sapiens, UniProt Q13422+Q96SW2); assay: Human Regulatory T Cell Degradation Assay (IKZF1 Ikaros); type: cell-based; design: Cryopreserved healthy donor human peripheral blood mononuclear cells; endogenous in cells; host or cells: primary human PBMC, CD8+ T cells read by flow cytometry; conditions: human regulatory T cells, 20 hours, 100% = no detectable protein remaining, read-out: IKZF1 Ikaros max % deg. observed
T1 sequence (Q13422 whole entry): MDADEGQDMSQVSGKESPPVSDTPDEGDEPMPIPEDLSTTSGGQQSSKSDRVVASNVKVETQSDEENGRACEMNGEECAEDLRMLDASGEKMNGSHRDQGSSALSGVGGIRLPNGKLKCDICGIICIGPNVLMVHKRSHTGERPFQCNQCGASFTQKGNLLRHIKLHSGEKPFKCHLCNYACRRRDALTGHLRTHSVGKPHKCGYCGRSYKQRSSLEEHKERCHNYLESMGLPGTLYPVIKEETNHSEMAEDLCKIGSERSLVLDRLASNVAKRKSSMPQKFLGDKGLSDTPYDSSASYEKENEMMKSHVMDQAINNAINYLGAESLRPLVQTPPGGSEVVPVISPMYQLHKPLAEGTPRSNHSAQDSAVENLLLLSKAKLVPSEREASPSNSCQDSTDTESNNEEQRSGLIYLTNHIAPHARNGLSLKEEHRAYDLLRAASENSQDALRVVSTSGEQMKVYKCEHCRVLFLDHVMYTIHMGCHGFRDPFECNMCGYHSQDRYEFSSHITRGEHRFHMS
T1 sequence (Q96SW2 whole entry): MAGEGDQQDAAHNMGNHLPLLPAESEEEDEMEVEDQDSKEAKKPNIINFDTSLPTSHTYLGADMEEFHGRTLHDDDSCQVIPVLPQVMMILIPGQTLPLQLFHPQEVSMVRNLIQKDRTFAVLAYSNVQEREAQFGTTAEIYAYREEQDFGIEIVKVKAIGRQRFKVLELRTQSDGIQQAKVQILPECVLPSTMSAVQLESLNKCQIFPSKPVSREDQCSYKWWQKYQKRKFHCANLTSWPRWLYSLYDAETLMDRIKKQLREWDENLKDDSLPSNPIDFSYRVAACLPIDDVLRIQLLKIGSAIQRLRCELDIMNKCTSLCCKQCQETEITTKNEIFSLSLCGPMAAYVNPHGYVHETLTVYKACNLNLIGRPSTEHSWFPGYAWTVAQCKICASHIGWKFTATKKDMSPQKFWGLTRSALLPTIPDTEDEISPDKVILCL
T1 sequence (Q16531 whole entry partner): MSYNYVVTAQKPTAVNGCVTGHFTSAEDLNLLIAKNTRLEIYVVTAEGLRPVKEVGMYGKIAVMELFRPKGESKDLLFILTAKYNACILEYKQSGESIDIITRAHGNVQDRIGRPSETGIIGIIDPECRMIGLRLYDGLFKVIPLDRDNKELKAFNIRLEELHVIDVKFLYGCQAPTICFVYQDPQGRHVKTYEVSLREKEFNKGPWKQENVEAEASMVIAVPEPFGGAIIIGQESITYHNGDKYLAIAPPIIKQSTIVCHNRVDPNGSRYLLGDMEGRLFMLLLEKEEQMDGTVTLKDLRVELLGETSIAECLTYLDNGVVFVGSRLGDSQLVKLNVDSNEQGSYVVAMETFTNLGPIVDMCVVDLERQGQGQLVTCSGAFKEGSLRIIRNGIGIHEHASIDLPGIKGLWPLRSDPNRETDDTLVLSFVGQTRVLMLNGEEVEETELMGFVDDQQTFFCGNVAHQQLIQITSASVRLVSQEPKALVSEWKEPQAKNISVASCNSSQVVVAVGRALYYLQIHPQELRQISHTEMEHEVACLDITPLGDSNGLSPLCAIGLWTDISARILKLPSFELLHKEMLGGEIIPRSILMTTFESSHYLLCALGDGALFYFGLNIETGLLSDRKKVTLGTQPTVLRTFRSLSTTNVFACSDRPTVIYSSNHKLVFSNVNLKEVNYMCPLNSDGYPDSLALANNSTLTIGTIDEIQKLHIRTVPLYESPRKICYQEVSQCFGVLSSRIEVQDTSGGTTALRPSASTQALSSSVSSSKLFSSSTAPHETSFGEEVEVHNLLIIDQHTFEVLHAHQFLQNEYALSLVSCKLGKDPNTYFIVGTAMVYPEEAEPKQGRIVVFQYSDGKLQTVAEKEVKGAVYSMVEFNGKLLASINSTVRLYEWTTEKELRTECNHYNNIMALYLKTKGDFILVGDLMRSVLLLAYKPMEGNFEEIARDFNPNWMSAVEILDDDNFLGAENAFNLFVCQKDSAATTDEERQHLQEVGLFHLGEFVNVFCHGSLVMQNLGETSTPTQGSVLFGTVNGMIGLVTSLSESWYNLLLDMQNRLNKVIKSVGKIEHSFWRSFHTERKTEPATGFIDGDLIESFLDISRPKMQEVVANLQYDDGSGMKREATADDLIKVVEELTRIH
Procedure: Cryopreserved human regulatory T cells were thawed in RPMI+10% FBS+20 ng/mL IL-2. After being spun at 1200 rpm for 5 mins, the cells were resuspended in RPMI+10% FBS+20 ng/ml and rested at 37° C. with 5% CO2 for 3 hours. The cells were then plated at 40,000 cells/well in 40 μL RPMI+10% FBS+20 ng/ml human IL~2 in a 384 well cell culture plate prior to using acoustic dispensing technology (ECHO 555) for adding compounds of interest. Cell cultures were incubated for 20 hours at 37° C. and 5% CO2. In order to facilitate analysis, cell cultures were spun down at 1200 rpm for 5 minutes and the supernatant was discarded using an EL406 plate washer. After washing three times with 70 μL PBS, cell pellets were resuspended in 50 μL of near IR viability staining solution (Life Technologies, Cat #L34975) and incubated for 30 minutes on ice protected from light. Cells were washed three times with 70 μL PBS+0.5% BSA using an EL406 plate washer. After shaking the plate to dislodge the cell pellet, cells were resuspended in 50 μL of Fixation Buffer (eBioScience FoxP3 buffer set 00-5523-00) for 60 minutes at room temperature. After centrifuging and discarding the supernatant, cells were permeabilized with 50 μL of permeabilization buffer (eBioScience FoxP3 buffer set 00-5523-00) for 10 minutes at room temperature. Following permeabilization, cells were spun down and the supernatant was replaced with 30 μL fluorescently labelled antibodies against the intracellular targets Helios (Helios-APC [BioLegend, Cat #137222, 1:50])]), Aiolos, and Ikaros Ix Permeabilization buffer and staining reactions were incubated for 1 hour at room temperature; protected from light. Subsequently, 30 μL of 1× Permeabilization buffer was added prior to centrifuging the cells and discarding the supernatant. Stained cells were resuspended in 30 μL of flow cytometry staining buffer (PBS+0.5% BSA) and analyzed using an Intellicyt Ique Plus flow cytometer.
Table B-1 lists the maximum observed degradation of the IKZF1 protein and IKZF2 protein as measured in the Human Regulatory Cell T Degradation assay. […]

[2] = molecular target: T1, IKZF1 Ikaros; assay: Human CD8+ T Cell Reprogramming Assay (IKZF1 Ikaros); type: cell-based; design: Cryopreserved healthy donor human peripheral blood mononuclear cells; endogenous in cells; host or cells: primary human PBMC, CD8+ T cells read by flow cytometry
Procedure: Cryopreserved healthy donor human peripheral blood mononuclear cells (PBMC) from healthy donors were thawed and seeded at 500,000 cells/well of 96-well round bottom plates in RPMI 1640 media (Gibco) supplemented with 10% FBS, Pen/Strep (Gibco), MEM-NEAA (Gibco), and sodium pyruvate (Gibco). Cells were treated with titrated doses of compound for 24 hours at 37° C., 5% CO2 before analyzing by flow cytometry.
For flow cytometry staining, cells were washed twice with flow cytometry staining buffer (Thermo Fisher) and incubated in Human Tru-stain Fc block (Biolegend) for 10 minutes before adding eFluor780 viability dye (Thermo Fisher) and surface marker antibody cocktail containing LD-eFluor780, CD3-BUV-395, CD4-BUV805, CD8-FITC, and CD25-BV605 for 30 minutes at 4° C. Cells were then fixed and permeabilized by incubation with permeabilization buffer (eBioscience FoxP3 buffer set 00-5523-00) for 30 minutes at 4° C. as per the kit manufacturer's instructions. Cells were washed twice with the Perm/Wash buffer supplied in the kit as per the manufacturer's instructions and incubated overnight at 4° C. with an intracellular antibody cocktail comprised of antibodies specific for the transcription factors (i.e., Foxp3-BV421, HELIOS-PE-Cy7, EOS-PE, IKAROS-PECF594, AIOLOS-AF647). Cells were washed twice with Perm/Wash buffer and resuspended in flow cytometry staining buffer (Thermo Fisher) prior to acquisition. Sample acquisition and analysis was performed using a BD LSRFortessa (BD Biosciences) flow cytometer. Single-stain controls for each fluorochrome were prepared using UltraComp eBead Compensation Beads (Thermo Fisher). Data were analyzed using FlowJo version 10 and GraphPad Prism Software.
Table D-1 lists the maximum observed degradation of the IKZF1 protein and IKZF3 protein as measured in the Human CD8^+ T Cell Reprogramming assay. The results in Table D-1 were rounded to two digits. In the Human CD8^+ T Cell Reprogramming assay, a value of 100% indicated no detectable protein remaining or complete degradation of the protein; and a value of 0% indicated no detectable degradation of the protein by the test compound.

[3] = human PBMC, CD8+ T cells, 24 hours, read-out: Maximum Observed Degradation IKZF1 Ikaros
[4] = human, 24 h, Table D-1, read-out: decreased the level of IKZF1 (Ikaros)

In the case of `O=C1CCC(N2Cc3c(ccc(-c4cc(CN5CC(c6ccccc6)C5)ccn4)c3F)C2=O)C(=O)N1` (centres unmarked) [Comparative Compound A, 3-(4-fluoro-1-oxo-5-(4-((3-phenylazetidin-1-yl)methyl)pyridin-2-yl)isoindolin-2-yl) piperidine-2,6-dione], the Dmax [1] was 19%, the Dmax [2, 3] was 20% and the Dmax [2, 4] was ≤ 20%.
`Nc1nc(-c2ccc3c(c2)CN(C2CCC(=O)NC2=O)C3=O)ccc1CN1CC2(CCC2)C1` (centres unmarked) [Comparative Compound B, 3-(5-(5-((2-azaspiro[3.3]heptan-2-yl)methyl)-6-aminopyridin-2-yl)-1-oxoisoindolin-2-yl) piperidine-2,6-dione] was tested, and the Dmax [1] was 37%, the Dmax [2, 3] was 11% and the Dmax [2, 4] was ≤ 20%.
`Nc1nc(-c2ccc3c(c2F)CN(C2CCC(=O)NC2=O)C3=O)ccc1CN1CC2(CCCOC2)C1` (centres unmarked) [Example 1, 3-(5-(5-((6-oxa-2-azaspiro[3.5]nonan-2-yl)methyl)-6-aminopyridin-2-yl)-4-fluoro-1-oxoisoindolin-2-yl) piperidine-2,6-dione] was tested, and the Dmax [1] was 49%, the DC50 ([2]; human PBMC, CD8+ T cells, 24 hours, concentration reducing protein level by 50% vs DMSO) was 29 to 43 nM and the Dmax [2, 3] was 64 to 65%. The Dmax [2, 4] was 64 to 65% and the Dmax ([2]; human, 24 h, Table E comparison, from Table D-1, read-out: IKZF1 Ikaros max % deg. observed) was 64 to 65%.
